Experimental data: paper PMC8466373, “Plant-Derived and Dietary Hydroxybenzoic Acids—A Comprehensive Study of Structural, Anti-/Pro-Oxidant, Lipophilic, Antimicrobial, and Cytotoxic Activity in MDA-MB-231 and MCF-7 Cell Lines” (Nutrients, 2021)
Values after ≈ are worked out from the molar mass of the structure shown. Read-outs that look alike come from different tables or passages of the source.

Legend:
[1] = CUPRAC assay (cupric-reducing antioxidant capacity); type: biochemical; conditions: concentration of 50 μM, methanolic solutions
Procedure: CUPRAC assay was carried out according to the method described in [44]. First, […] of CuCl2 (C = 10 mM; in water) was mixed with […] of ammonium acetate (pH 7; in water) and neocuproine (C = 75 mM; in ethanol). […] The samples were mixed and incubated for 60 min at room temperature (23 °C). The absorbance of the samples was measured with a UV–Vis spectrophotometer at λ = 450 nm against a blank (containing 0.5 mL of methanol instead of the sample). […] R^2 = 0.9919).

[2] = test system: Salmonella enteritidis (NCTC 4776); test: MIC by serial dilution in agar medium; type: cell-based; conditions: Salmonella enterica
Procedure: (§1) The following bacterial strains were used in this study: Escherichia coli (PCM 2857), Pseudomonas aeruginosa (PCM 2720), Bacillus subtilis (PCM 2850), Staphylococcus aureus (PCM 2267), Salmonella enteritidis (NCTC 4776), and Candida albicans (PCM 2566-FY). The microbial strains were bought from the Polish Collection of Microorganisms (Wroclaw, Poland) or the American Type Culture Collection.
(§2) The MIC (minimal inhibitory concentration) was determined by serial dilution of the tested compound in an agar medium, to which the appropriate inoculum of microorganisms was then added and incubated. Escherichia coli, Pseudomonas aeruginosa, Staphylococcus aureus, Bacillus subtilis, Salmonella enteritidis, and Candida albicans were grown overnight and then resuspended in physiological saline to an optical density at 600 nm (OD = 600) of 0.60, corresponding to 5.0 × 10^8 CFU/mL. Bacteria (0.1 mL of the reconstituted suspension) were seeded onto sterile Mueller–Hinton agar plates, to which previously suitable amounts of the tested compounds were added to reach the desired concentration. Tested chemicals were dissolved in DMSO solution. Negative controls were agar plates, to which DMSO was added, while positive controls were plates with gentamycin (in the case of bacteria) or flucanozole (in the case of fungi). The plates were incubated at 37 °C for 24 h. The lowest concentration without visible bacterial growth was determined as the MIC.

[3] = test system: E. coli, P. aeruginosa, S. aureus, B. subtilis, S. enteritidis, and C. albicans; test: MIC, stated for all tested strains together; type: cell-based; conditions: all of the tested strains
Procedure: as §1, with “Collection. Bacteria (0.1 mL of the reconstituted suspension) were seeded onto sterile Mueller–Hinton agar plates (Biomaxima), to which previously suitable amounts of the tested compounds were added to give the desired concentration.” for “Collection.”
as §2

[4] = CABTS = 7 mM, cited from earlier work; for IC50: t = 6 min, read-out: ABTS, IC50; for inhibition: C = 10 μM, t = 7 min, read-out: ABTS radical scavenging activity (%)
[5] = test system: A. flavus; conditions: concentration of 30 mg/mL; cited from earlier work
[6] = test system: Chrysosporium species; conditions: concentration of 30 mg/mL; cited from earlier work
[7] = test system: MDA-MB-231 cells; parameters: method as in PMID 31746356; conditions: incubated for 48 h; cited from earlier work
[8] = cited from earlier work
[9] = Pro-oxidant activity, Trolox oxidation assay; type: biochemical; conditions: after 120 min of incubation, concentrations of 35 μM
Procedure: The pro-oxidant activity was expressed as the rate of Trolox oxidation according to the protocol described in [45]. First, a mixture of 0.5 mL of Trolox (C = 0.4 mM; in water) with 0.5 mL of H2O2 (C = 0.2 mM; in water), 0.5 mL of HRP (C = 0.04 μM; in phosphate buffer; pH = 7), 5 μL of the tested compounds (C = 50 μM; in methanol), and […] of distilled water was prepared as the tested sample. […] The control contained methanol instead of the tested substance.

[10] = test system: MCF-7 cells; test: Cytotoxicity, neutral red (NR) assay; type: cell-based, human; conditions: for Cytotoxicity (mM) in Cell Line MCF-7, IC50: 48 h treatment, neutral red assay
Procedure: (§3) Briefly, MCF-7 cells were cultured in EMEM (Biological Industries, Israel) medium supplemented with 10% fetal calf serum (Gibco). MDA-MB-231 cells were cultured in Leibovitz‘s L15 (Biological Industries, Beit HaEmek, Israel) medium supplemented with 10% fetal calf serum (Gibco). The MCF-7 cells were incubated in a 5% CO2 atmosphere at 37 °C, whereas the MDA-231 cells were incubated in a 100% air atmosphere at 37 °C.
(§4) Cytotoxicity evaluation was conducted to assess the impact of hydroxybenzoic acids on the proliferation of MCF-7 and MDA-MB-231 cells, which was measured via neutral red (NR) assay. In brief, cells were seeded in 96-well microplates (TPP, Switzerland) at a density of 2 × 10^4 cells/well in 100 μL of culture medium. At least three independent experiments in six replicate wells were conducted per concentration. Twenty-four hours after cell seeding, cells were treated with increasing concentrations of hydroxybenzoic acids (0.02–5 mM) for forty-eight hours. After treatment, cells were incubated for 3 h at 37 °C with 100 µL of neutral red solution (stock solution of NR) (Sigma-Aldrich), and then 5 mg/mL of PBS was diluted 1:100 in cell culture medium, incubated for 12 h at 37 °C, and centrifuged to remove any undissolved NR powder. […] After 15 min of gentle shaking, optical density was read at 540 nm with an Infinite M200 plate reader spectrophotometer (Tecan, Austria).

[11] = test system: MDA-MB-231 cells; test: Cytotoxicity, neutral red (NR) assay; type: cell-based, human; conditions: for Cytotoxicity (mM) in Cell Line MDA-MB-231, IC50: 48 h treatment, neutral red assay
Procedure: as §3, §4

[12] = cited from earlier work; for inhibition: read-out: DPPH radical scavenging activity (%)
[13] = cited from earlier work; remark: listed apart in the source
[14] = test system: HepG2 hepatocellular carcinoma cells; conditions: 100 µM, incubation time: 4 days; cited from earlier work
[15] = test system: MDA-MB-231 cells; parameters: method as in PMID 30211078; conditions: in 24 h; read-out: IC50, growth of MDA-MB-231 cells; cited from earlier work
[16] = Salmonella enteritidis, read-out: MIC
[17] = CDPPH = 90 μM, t = 30 min, read-out: DPPH, IC50
[18] = C = 0,001 mg/mL, λ = 593 nm, t = 30 min
[19] = C = 10 μM, CDPPH = 100 μM, t = 30 min
[20] = C = 15 μM, CDPPH = 60 μM, t = 30 min
[21] = CDPPH = 60 μM, t = 30 min, read-out: DPPH, IC50
[22] = CDPPH = 1 mM, t = 20 min, read-out: DPPH, IC50

MIC [2, 16] [µg/mL] | Structure (SMILES) | CUPRAC assay: Trolox equivalent [1] [µM] | MIC [3] [µg/mL] | IC50 ([4]; ref 73) [µM] | concentration that inhibited colony formation [7] | pKaexp. ([8]; at 25 °C) | pKaexp. ([8]; ref 104) | pKaexp. ([8]; ref 105) | degree of Trolox oxidation [9] [%] | Cytotoxicity (mM) in Cell Line MCF-7, IC50 [10] | Cytotoxicity (mM) in Cell Line MDA-MB-231, IC50 [11] | IC50 [12, 17] [µM] | FRAP [13, 18] | inhibition [12, 19] [%] | inhibition [12, 20] [%] | IC50 [12, 21] [µM] | IC50 [12, 22] [µM] | inhibition [4] [%] | IC50 ([4]; ref 68) [µM] | also measured
2000 (≈ 13 mM) | O=C(O)c1cc(O)cc(O)c1 [3,5-DHB, 3,5-dihydroxybenzoic acid] | – | – | 41.9 | – | – | 4.04 | 3.61 | 8.03 | nontoxic | nontoxic | 385 | ≈ 0.03 (C = 0,001 mg/mL), λ = 593 nm, t = 30 min) [73] μM Fe^2+ | – | – | – | – | – | – | pKaexp. ([8]; ref 108): 4.04
– | O=C(O)c1ccc(O)c(O)c1 [3,4-DHB, 3,4-dihydroxybenzoic acid] | 60.53 | 2000 (≈ 13 mM) | 20.7 | – | 4.26 | 4.48 | 4.16 | 8.44 | nontoxic | nontoxic | – | ≈ 0.65 (C = 0,001 mg/mL), λ = 593 nm, t = 30 min) [73] μM Fe^2+ | ~70 | ~88.5 | 15.8 | 0.0574 | ~38 | 10.1 | MIC [2]: 2000 µg/mL (≈ 13 mM); IC50 ([12]; CDPPH = 50 μM, t = 30 min, read-out: DPPH, IC50): 3.83 µM; HepG2 cells' viability [14]: 40%
3000 (≈ 19.5 mM) | O=C(O)c1cc(O)ccc1O [2,5-DHB, 2,5-dihydroxybenzoic acid] | 68.77 | – | 15.6 | 100 µM | – | – | – | – | – | – | 37 | ≈ 0.98 (C = 0,001 mg/mL), λ = 593 nm, t = 30 min) [73] μM Fe^2+ | – | – | 6.3 | 0.0292 | – | ~6.5 | IC50 ([12]; CDPPH = 60 μM, t = 60 min, read-out: DPPH, IC50): 4.95 µM; FRAP ([13]; C = 5 μM, λ = 594 nm, t = n.d.): 75.39 (C = 5 μM, λ = 594 nm, t = n.d.) [62] μM Fe^2+; FRAP ([13]; C = 50 μM, λ = 594 nm, t = n.d.): 236.86 (C = 50 μM, λ = 594 nm, t = n.d.) [62] μM Fe^2+
– | O=C(O)c1cc(O)c(O)c(O)c1 [3,4,5-THB, 3,4,5-trihydroxybenzoic acid] | 73.85 | – | 4.33 | – | – | 4.41 | 3.94 | – | – | – | – | ≈ 1.03 (C = 0,001 mg/mL), λ = 593 nm, t = 30 min) [73] μM Fe^2+ | ~70 | 88.5 | – | 0.0237 | ~80 | – | inhibition of growth of MCF-7 cells ([10]; concentration of 5 mM): almost completely; inhibition of growth of MDA-MB-231 cells ([11]; concentration of 5 mM): almost completely; inhibition ([12]; C ≈ 0.7 mM, CDPPH = 200 μM, t = 30 min): 40%; IC50 ([12]; after 30 min of incubation with a free radical, read-out: DPPH IC50): 4.2 µM; IC50 [15]: ~150 µM; pKaexp. ([8]; ref 110): 4.40
3000 (≈ 19.5 mM) | O=C(O)c1c(O)cccc1O [2,6-DHB, 2,6-dihydroxybenzoic acid] | – | – | – | – | – | 1.30 | 1.51 | 9.52 | – | – | – | – | – | – | – | – | – | – | IC50 ([12]; CDPPH = 500 μM, t = 30 min, read-out: DPPH, IC50): 232 µM

Structure (SMILES) | MIC [2, 16] [µg/mL] | CUPRAC assay: Trolox equivalent [1] [µM] | MIC [3] [µg/mL] | IC50 ([4]; ref 73) [µM] | concentration that inhibited colony formation [7] | pKaexp. ([8]; at 25 °C) | pKaexp. ([8]; ref 104) | pKaexp. ([8]; ref 105) | degree of Trolox oxidation [9] [%] | Cytotoxicity (mM) in Cell Line MCF-7, IC50 [10] | Cytotoxicity (mM) in Cell Line MDA-MB-231, IC50 [11] | IC50 [12, 17] [µM] | FRAP [13, 18] | inhibition [12, 19] [%] | inhibition [12, 20] [%] | IC50 [12, 21] [µM] | IC50 [12, 22] [µM] | inhibition [4] [%] | IC50 ([4]; ref 68) [µM] | also measured
O=C(O)c1cccc(O)c1O [2,3-DHB, 2,3-Dihydroxybenzoic acid] | 5000 (≈ 32.4 mM) | 60.83 | 5000 (≈ 32.4 mM) | 10.7 | ~ 500 µM | 2.91 | 2.98 | 2.56 | – | – | – | – | – | – | – | – | – | – | – | zone of inhibition [5]: 24 mm; zone of inhibition [6]: 25 mm
